{"source": "paper PMC11148080", "about": "“Ru(II)-based complexes containing 2-thiouracil derivatives suppress liver cancer stem cells by targeting NF-κB and Akt/mTOR signaling” (Cell Death Discovery, 2024)", "assay_type_in_all_cases": "cell-based, human", "key": {"HepG2 cells [1]": {"test_system": "HepG2 cells", "assay": "May-Grunwald-Giemsa staining morphology", "settings": "24, 48, 72 h", "method": "Cells were grown on coverslips and stained with May-Grunwald-Giemsa. Subsequently, we employed light microscopy to examine and analyze morphological changes."}, "HepG2 cells [2]": {"test_system": "HepG2 cells", "assay": "Trypan blue exclusion assay", "settings": "HepG2, 72 h", "method": "The number of viable cells (unstained cells) and nonviable cells (trypan blue-stained cells) was counted by the trypan blue exclusion test. Briefly, 90 μL of cell suspension was selected, and 10 μL of trypan blue (0.4%) was added. A hemocytometer was used to fill the aliquot of the homogenized cell suspension, and the cells were counted under a light microscope."}, "HepG2 cells [3]": {"test_system": "HepG2 cells", "assay": "qPCR array gene expression", "set-up": "key to RQ MTOR / RQ GSTP1 / RQ TXN / RQ TXNRD1 / RQ CTSS / RQ TOP2B / RQ NFKB1 / RQ HDAC1 / RQ AURKC / RQ NTN3 / RQ HDAC6 / RQ TNKS: RQ by 2^-ΔΔCT, fold vs 0.2% DMSO calibrator (=1); key to RQ BCL2 / RQ BIRC5 / RQ ERBB2 / RQ ERBB3 / RQ IGF1R / RQ CTSD / RQ ESR1 / RQ CDC25A / RQ HIF1A / RQ CDK9 / RQ MDM2 / RQ TP53 / RQ KRAS / RQ HDAC11 / RQ HDAC8: fold change by 2^-ΔΔCT vs 0.2% DMSO calibrator (=1)", "settings": "12 h; 8 µM complex 1, 6 µM complex 2", "method": "Total RNA was extracted using the RNeasy Plus Mini Kit (Qiagen; Hilden, Germany) following the manufacturer’s instructions. A NanoDrop® 1000 spectrophotometer (Thermo Fisher Scientific, Waltham, Massachusetts, USA) was used to quantify and assess the purity of the RNA. Reverse transcription was performed using the Superscript VILOTM enzyme (Invitrogen Corporation; Waltham, MA, USA), and a TaqMan® array human cancer drug target 96-well plate, fast (ID RPRWENH, Applied BiosystemsTM, Foster City, CA, USA) was used for the gene expression study by qPCR (ABI ViiA7, Applied Biosystems instrument). The cycle conditions were 2 min at 50 °C, 10 min at 95 °C, and 40 cycles of 15 s at 95 °C and 1 min at 60 °C. All the experiments were conducted under DNase/RNase-free conditions. The 2^-ΔΔCT method was used to calculate the relative quantification (RQ) of mRNA expression using Gene Expression SuiteTM Software (Applied BiosystemsTM). Cells treated with the negative control (0.2% DMSO) were used as a calibrator, and the RQs of the reference genes GAPDH, UBC and RPLP0 were used to normalize the responses."}, "HepG2 cells [4]": {"test_system": "HepG2 cells", "assay": "NF-κB and Akt/mTOR signaling protein levels by flow cytometry", "settings": "HepG2, 24 h; 8 μM complex 1, 6 μM complex 2", "method": "To stain intracellular proteins, the cells were harvested and resuspended in 0.5-1 mL of 4% formaldehyde for 10 min at 37 °C. The tube was then placed on ice for 1 min, after which the cells were prechilled and permeabilized using a sequence of 100% (30 min) to 90% (30 min) methanol with gentle mixing. After washing with incubation buffer (0.5% bovine serum albumin in PBS), primary antibodies were added and incubated for 1 h at room temperature. Finally, the cells were washed with PBS, and flow cytometry was used to measure cell fluorescence.\nFor all flow cytometry analyses, cellular fluorescence was measured using a BD LSRFortessa cytometer, BD FACSDiva software (BD Biosciences) and FlowJo software 10 (FlowJo LLC; Ashland, OR, USA). A minimum of 10,000 events were obtained per sample for intracellular staining, and a minimum of 30,000 events per sample were acquired for cell surface protein staining. Doublets were removed using FSC-A vs FCS-H and SCC-A vs SCC-H. Cellular debris was excluded from the analysis."}}, "note": "Several values for one entry are separate records, joined by “and”; a condition that tells them apart may be missing. Identical values can stand only once."}
{"smiles": "Cc1cc(=O)nc([S][Ru+])[nH]1.F[P-](F)(F)(F)(F)F.c1ccc(-c2ccccn2)nc1.c1ccc(P(c2ccccc2)c2ccccc2)cc1.c1ccc(P(c2ccccc2)c2ccccc2)cc1", "note": "[Complex 2, trans-[Ru(6m2TU)(PPh3)2(bipy)]PF6]", "values": [{"measurement": "cell morphology (May-Grunwald-Giemsa)", "setting": "HepG2 cells [1]", "result": "cell morphology changes that were associated with apoptosis"}, {"measurement": "reduction of cell viability", "setting": "HepG2 cells [2]; 1.5 µM", "result": 39.4, "unit": "%"}, {"measurement": "reduction of cell viability", "setting": "HepG2 cells [2]; 3 µM", "result": 61.4, "unit": "%"}, {"measurement": "reduction of cell viability", "setting": "HepG2 cells [2]; 6 µM", "result": 93.5, "unit": "%"}, {"measurement": "RQ ABCC1", "setting": "HepG2 cells [3]", "result": 1.941}, {"measurement": "RQ AKT1", "setting": "HepG2 cells [3]", "result": 1.087}, {"measurement": "RQ AKT2", "setting": "HepG2 cells [3]", "result": 1.490}, {"measurement": "RQ ATF2", "setting": "HepG2 cells [3]", "result": 2.672}, {"measurement": "RQ AURKA", "setting": "HepG2 cells [3]", "result": 1.172}, {"measurement": "RQ AURKB", "setting": "HepG2 cells [3]", "result": 1.242}, {"measurement": "RQ AURKC", "setting": "HepG2 cells [3]", "result": 2.011}, {"measurement": "RQ BCL2", "setting": "HepG2 cells [3]", "result": 1.249}, {"measurement": "RQ BIRC5", "setting": "HepG2 cells [3]", "result": 1.033}, {"measurement": "RQ CDC25A", "setting": "HepG2 cells [3]", "result": 6.141}, {"measurement": "RQ CDK1", "setting": "HepG2 cells [3]", "result": 0.752}, {"measurement": "RQ CDK2", "setting": "HepG2 cells [3]", "result": 1.120}, {"measurement": "RQ CDK4", "setting": "HepG2 cells [3]", "result": 1.730}, {"measurement": "RQ CDK5", "setting": "HepG2 cells [3]", "result": 1.104}, {"measurement": "RQ CDK7", "setting": "HepG2 cells [3]", "result": 2.039}, {"measurement": "RQ CDK8", "setting": "HepG2 cells [3]", "result": 3.664}, {"measurement": "RQ CDK9", "setting": "HepG2 cells [3]", "result": 1.146}, {"measurement": "RQ CTSB", "setting": "HepG2 cells [3]", "result": 0.972}, {"measurement": "RQ CTSD", "setting": "HepG2 cells [3]", "result": 1.586}, {"measurement": "RQ CTSL", "setting": "HepG2 cells [3]", "result": 0.950}, {"measurement": "RQ CTSS", "setting": "HepG2 cells [3]", "result": 0.866}, {"measurement": "RQ EGFR", "setting": "HepG2 cells [3]", "result": 1.856}, {"measurement": "RQ ERBB2", "setting": "HepG2 cells [3]", "result": 1.118}, {"measurement": "RQ ERBB3", "setting": "HepG2 cells [3]", "result": 1.280}, {"measurement": "RQ ESR1", "setting": "HepG2 cells [3]", "result": 0.968}, {"measurement": "RQ ESR2", "setting": "HepG2 cells [3]", "result": 2.732}, {"measurement": "RQ GRB2", "setting": "HepG2 cells [3]", "result": 2.255}, {"measurement": "RQ GSTP1", "setting": "HepG2 cells [3]", "result": "0.276 and 0.27"}, {"measurement": "RQ HDAC1", "setting": "HepG2 cells [3]", "result": 16.128}, {"measurement": "RQ HDAC2", "setting": "HepG2 cells [3]", "result": 2.118}, {"measurement": "RQ HDAC3", "setting": "HepG2 cells [3]", "result": 3.639}, {"measurement": "RQ HDAC4", "setting": "HepG2 cells [3]", "result": 0.456}, {"measurement": "RQ HDAC6", "setting": "HepG2 cells [3]", "result": 1.088}, {"measurement": "RQ HDAC7", "setting": "HepG2 cells [3]", "result": 2.228}, {"measurement": "RQ HDAC8", "setting": "HepG2 cells [3]", "result": 1.517}, {"measurement": "RQ HDAC11", "setting": "HepG2 cells [3]", "result": 3.379}, {"measurement": "RQ HIF1A", "setting": "HepG2 cells [3]", "result": 3.509}, {"measurement": "RQ HRAS", "setting": "HepG2 cells [3]", "result": 0.785}, {"measurement": "RQ HSP90AA1", "setting": "HepG2 cells [3]", "result": 3.278}, {"measurement": "RQ HSP90B1", "setting": "HepG2 cells [3]", "result": 2.205}, {"measurement": "RQ IGF1R", "setting": "HepG2 cells [3]", "result": 1.357}, {"measurement": "RQ KRAS", "setting": "HepG2 cells [3]", "result": 1.185}, {"measurement": "RQ MDM2", "setting": "HepG2 cells [3]", "result": 0.982}, {"measurement": "RQ MDM4", "setting": "HepG2 cells [3]", "result": 2.736}, {"measurement": "RQ MTOR", "setting": "HepG2 cells [3]", "result": 1.092}, {"measurement": "RQ NFKB1", "setting": "HepG2 cells [3]", "result": 0.760}, {"measurement": "RQ NRAS", "setting": "HepG2 cells [3]", "result": 0.469}, {"measurement": "RQ NTN3", "setting": "HepG2 cells [3]", "result": 0.712}, {"measurement": "RQ PARP1", "setting": "HepG2 cells [3]", "result": 1.065}, {"measurement": "RQ PARP4", "setting": "HepG2 cells [3]", "result": 2.503}, {"measurement": "RQ PDGFRB", "setting": "HepG2 cells [3]", "result": 1.004}, {"measurement": "RQ PGR", "setting": "HepG2 cells [3]", "result": 30.650}, {"measurement": "RQ PIK3C2A", "setting": "HepG2 cells [3]", "result": 0.839}, {"measurement": "RQ PIK3C3", "setting": "HepG2 cells [3]", "result": 0.840}, {"measurement": "RQ PIK3CA", "setting": "HepG2 cells [3]", "result": "0.441 and 0.44"}, {"measurement": "RQ PLK1", "setting": "HepG2 cells [3]", "result": 0.509}, {"measurement": "RQ PLK2", "setting": "HepG2 cells [3]", "result": 5.868}, {"measurement": "RQ PLK3", "setting": "HepG2 cells [3]", "result": 2.039}, {"measurement": "RQ PLK4", "setting": "HepG2 cells [3]", "result": 0.844}, {"measurement": "RQ PRKCA", "setting": "HepG2 cells [3]", "result": 1.337}, {"measurement": "RQ PRKCB", "setting": "HepG2 cells [3]", "result": 0.506}, {"measurement": "RQ PRKCD", "setting": "HepG2 cells [3]", "result": 0.340}, {"measurement": "RQ PRKCE", "setting": "HepG2 cells [3]", "result": 1.636}, {"measurement": "RQ PTGS2", "setting": "HepG2 cells [3]", "result": 15.420}, {"measurement": "RQ RHOA", "setting": "HepG2 cells [3]", "result": 0.628}, {"measurement": "RQ RHOB", "setting": "HepG2 cells [3]", "result": 0.406}, {"measurement": "RQ TERT", "setting": "HepG2 cells [3]", "result": 1.051}, {"measurement": "RQ TNKS", "setting": "HepG2 cells [3]", "result": 2.369}, {"measurement": "RQ TOP2A", "setting": "HepG2 cells [3]", "result": 0.423}, {"measurement": "RQ TOP2B", "setting": "HepG2 cells [3]", "result": 0.235}, {"measurement": "RQ TP53", "setting": "HepG2 cells [3]", "result": 1.658}, {"measurement": "RQ TXN", "setting": "HepG2 cells [3]", "result": "0.375 and 0.37"}, {"measurement": "RQ TXNRD1", "setting": "HepG2 cells [3]", "result": 0.35}, {"measurement": "level of Akt1", "setting": "HepG2 cells [4]", "result": "reduced"}, {"measurement": "level of phospho-4EBP1 (T36/T45)", "setting": "HepG2 cells [4]", "result": "not affected"}, {"measurement": "level of phospho-Akt (S473)", "setting": "HepG2 cells [4]", "result": "reduced"}, {"measurement": "level of phospho-Akt (T308)", "setting": "HepG2 cells [4]", "result": "not affected"}, {"measurement": "level of phospho-PI3K p85/p55 (T458/T199)", "setting": "HepG2 cells [4]", "result": "not affected"}, {"measurement": "level of phospho-elF4E (S209)", "setting": "HepG2 cells [4]", "result": "not affected"}, {"measurement": "level of phospho-mTOR (S2448)", "setting": "HepG2 cells [4]", "result": "reduced"}]}
